Columns and labels:
hDHODH = target: T1, hDHODH (Homo sapiens, UniProt Q02127); experiment: hDHODH enzyme inhibition assay (DCIP/UQ0, dihydroorotate-initiated); type: biochemical; settings: for inhibition at 10 µM: compound at 10 µM, 10 nM purified hDHODH; for IC50: three independent tests, determined if inhibition at 10 μM was greater than 50%;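 as to all read-outs here: recombinant hDHODH (Met30–Arg396) in HEPES pH 8.0 buffer with KCl and Triton X-100, reaction started by 500 µM dihydroorotate, inhibition from rate with inhibitor relative to uninhibited rate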
T1 construct: The plasmid pET-19b–hDHODH (Met30-Arg396) was transformed; inferred from the pET-19b vector and from purification on a chelating column with imidazole elution) (N); made in house; host or cells: E. coli BL21 (DE3)
T1 sequence (Q02127 29-395 limits assumed): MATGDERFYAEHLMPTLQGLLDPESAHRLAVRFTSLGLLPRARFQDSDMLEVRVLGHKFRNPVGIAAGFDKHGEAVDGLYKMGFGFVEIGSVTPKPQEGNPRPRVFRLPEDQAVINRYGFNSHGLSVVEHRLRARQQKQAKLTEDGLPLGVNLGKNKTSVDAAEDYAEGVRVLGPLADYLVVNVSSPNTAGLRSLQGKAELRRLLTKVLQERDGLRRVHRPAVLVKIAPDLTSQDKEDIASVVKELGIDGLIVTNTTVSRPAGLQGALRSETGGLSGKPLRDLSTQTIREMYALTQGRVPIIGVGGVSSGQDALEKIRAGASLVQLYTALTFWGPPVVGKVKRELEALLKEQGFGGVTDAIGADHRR
Protocol: The purified hDHODH was diluted into a final concentration of 10 nM with the assay buffer contained 50 mM HEPES pH 8.0, 150 mM KCl, 0.1% Triton X-100. […] The dihydroorotate was added to a final concentration of 500 μM to initiate the reaction. […] Inhibition rate was calculated from (1-Vi/V0) × 100. For the determination of the IC50 values, eight to nine different concentrations were applied. Each inhibitor concentration point was tested in triplicate. IC50 values were calculated using the sigmoidal fitting option of the program Origin 8.0.

| Compound | inhibition at 10 µM (hDHODH) [%] | IC50 (hDHODH) [µM] | melting point [°C] | hDHODH inhibitory activity in words (hDHODH) |
| --- | --- | --- | --- | --- |
| COC(=O)/C(C#N)=C1\SCC(=O)N1c1ccc(-c2cccc(C#N)c2)cc1F [Compound 16, Methyl (Z)-2-cyano-2-(3-(3’-cyano-3-fluoro-[1,1’-biphenyl]-4-yl)-4-oxothiazolidin-2-ylidene)acetate] | 50.2 | 8.39 | 191.2 to 191.3 |  |
| COC(=O)/C(C#N)=C1\SCC(=O)N1c1ccc(-c2cccc(C(F)(F)F)c2)cc1F [Compound 18, Methyl (Z)-2-cyano-2-(3-(3-fluoro-3’-(trifluoromethyl)-[1,1’-biphenyl]-4-yl)-4-oxothiazolidin-2-ylidene) -acetate] | 53.1 | 9.29 |  |  |
| COC(=O)/C(C#N)=C1\SCC(=O)N1c1ccc(C(C)(C)C)cc1 [Compound 7] | 79.1 | 1.75 |  |  |
| COC(=O)/C(C#N)=C1\SCC(=O)N1c1ccc(Oc2ccccc2)cc1 [Compound 19, Methyl (Z)-2-cyano-2-(4-oxo-3-(4-phenoxyphenyl)thiazolidin-2-ylidene)acetate] | 52 | 9.43 |  |  |
| COC(=O)/C(C#N)=C1\SCC(=O)N1c1cccc(Oc2ccccc2)c1 [Compound 23, Methyl (Z)-2-cyano-2-(4-oxo-3-(3-phenoxyphenyl)thiazolidin-2-ylidene)acetate] | 34.4 | > 10 | 183.4 to 184.3 | inactive |
| COC(=O)/C(C#N)=C1\SCC(=O)N1c1ccc(Oc2cccc(C(F)(F)F)c2)cc1 [Compound 21] | 29.7 | > 10 | 159.7 to 161.3 |  |
| COC(=O)/C(C#N)=C1\SCC(=O)N1c1ccc(-c2cccc(OC)c2)cc1F [Compound 14, Methyl (Z)-2-cyano-2-(3-(3-fluoro-3’-methoxy-[1,1’-biphenyl]-4-yl)-4-oxothiazolidin-2-ylidene)acetate] | 63.3 | 5.42 |  |  |
| COC(=O)/C(C#N)=C1\SCC(=O)N1c1ccc(-c2ccccc2OC)cc1F [Compound 13, Methyl (Z)-2-cyano-2-(3-(3-fluoro-2’-methoxy-[1,1’-biphenyl]-4-yl)-4-oxothiazolidin-2-ylidene)acetate] | 54.7 | 6.64 |  |  |
| COC(=O)/C(C#N)=C1\SCC(=O)N1c1ccc2ccccc2c1 [Compound 8] | 80.3 | 1.12 |  |  |
| COC(=O)/C(C#N)=C1\SCC(=O)N1c1ccc(-c2ccccc2)cc1 [Compound 9, Methyl (Z)-2-(3-([1,1’-biphenyl]-4-yl)-4-oxothiazolidin-2-ylidene)-2-cyanoacetate] | 73.8 | 1.32 |  |  |
| COC(=O)/C(C#N)=C1\SCC(=O)N1c1ccc(-c2ccccc2C)cc1F [Compound 12, Methyl (Z)-2-cyano-2-(3-(3-fluoro-2’-methyl-[1,1’-biphenyl]-4-yl)-4-oxothiazolidin-2-ylidene)acetate] | 57.6 | 6.04 |  |  |
| COC(=O)/C(C#N)=C1\SCC(=O)N1c1c(F)cc(-c2ccccc2)cc1F [Compound 11, Methyl (Z)-2-cyano-2-(3-(3,5-difluoro-[1,1’-biphenyl]-4-yl)-4-oxothiazolidin-2-ylidene)acetate] | 33.9 | > 10 |  |  |
| COC(=O)/C(C#N)=C1\SCC(=O)N1c1ccc(-c2ccccc2)cc1F [Compound 10, Methyl (Z)-2-cyano-2-(3-(3-fluoro-[1,1’-biphenyl]-4-yl)-4-oxothiazolidin-2-ylidene)acetate] | 58.8 | 3.52 |  |  |

Other lines, results leading:

| inhibition at 10 µM (hDHODH) [%] | IC50 (hDHODH) [µM] | melting point [°C] | hDHODH inhibitory activity in words (hDHODH) | Compound |
| --- | --- | --- | --- | --- |
| 55.4 | 5.01 | 268.9 to 269.7 |  | COC(=O)/C(C#N)=C1\SCC(=O)N1c1ccc(C(=O)Nc2ccc(OC)cc2)cc1 [Compound 36, Methyl (Z)-2-cyano-2-(3-(4-((4-methoxyphenyl)carbamoyl)phenyl)-4-oxothiazolidin-2-ylidene)acetate] |
| 23.5 | > 10 | 205.7 to 206.6 |  | COC(=O)/C(C#N)=C1\SCC(=O)N1c1ccc(C(=O)Nc2cccc(C(=O)O)c2)cc1 [Compound 41, (Z)-3-(4-(2-(1-Cyano-2-methoxy-2-oxoethylidene)-4-oxothiazolidin-3-yl)benzamido)benzoic acid] |
| 38.1 | > 10 | 315.8 to 316.6 |  | COC(=O)/C(C#N)=C1\SCC(=O)N1c1ccc(C(=O)Nc2ccc(I)cc2)cc1 [Compound 34, Methyl (Z)-2-cyano-2-(3-(4-((4-iodophenyl)carbamoyl)phenyl)-4-oxothiazolidin-2-ylidene)acetate] |
| 44 | > 10 | 205.7 to 206.6 |  | COC(=O)/C(C#N)=C1\SCC(=O)N1c1ccc(C(=O)NCc2cccc(C(=O)O)c2)cc1 [Compound 43, (Z)-3-((4-(2-(1-cyano-2-methoxy-2-oxoethylidene)-4-oxothiazolidin-3-yl)benzamido)methyl) benzoic acid] |
| 24.5 | > 10 | 264.2 to 265.1 |  | COC(=O)/C(C#N)=C1\SCC(=O)N1c1ccc(C(=O)Nc2ccc(C(F)(F)F)cc2)cc1 [Compound 35, Methyl (Z)-2-cyano-2-(4-oxo-3-(4-((4-(trifluoromethyl)phenyl)carbamoyl)phenyl)thiazolidin-2-ylidene) acetate] |
| 42.2 | > 10 | 275 to 275.8 |  | COC(=O)/C(C#N)=C1\SCC(=O)N1c1ccc(C(=O)Nc2ccc3c(C(C)=O)cccc3c2)cc1 [Compound 45, Methyl (Z)-2-(3-(4-((5-acetylnaphthalen-2-yl)carbamoyl)phenyl)-4-oxothiazolidin-2-ylidene)-2-cyanoacetate] |
| 29.9 | > 10 |  |  | COC(=O)/C(C#N)=C1\SCC(=O)N1c1ccc(OCc2ccccc2C(=O)O)cc1 [Compound 25, (Z)-2-((4-(2-(1-Cyano-2-methoxy-2-oxoethylidene)-4-oxothiazolidin-3-yl)phenoxy)methyl)benzoic acid] |
| 52.7 | 7.5 | 280.1 to 280.9 |  | COC(=O)/C(C#N)=C1\SCC(=O)N1c1ccc(C(=O)Nc2ccc(Cl)cc2)cc1 [Compound 32, Methyl (Z)-2-(3-(4-((4-chlorophenyl)carbamoyl)phenyl)-4-oxothiazolidin-2-ylidene)-2-cyanoacetate] |
| 75.6 | 1.45 | 256.1 to 257 |  | COC(=O)/C(C#N)=C1\SCC(=O)N1c1ccc(C(=O)Nc2ccc(C(C)(C)C)cc2)cc1 [Compound 37, Methyl (Z)-2-(3-(4-((4-(tert-butyl)phenyl)carbamoyl)phenyl)-4-oxothiazolidin-2-ylidene)-2-cyanoacetate] |
| 55.4 | 4.32 |  |  | COC(=O)/C(C#N)=C1\SCC(=O)N1c1ccc(OCc2ccccc2)cc1 [Compound 24, Methyl (Z)-2-(3-(4-(benzyloxy)phenyl)-4-oxothiazolidin-2-ylidene)-2-cyanoacetate] |
| 41.7 | > 10 |  |  | COC(=O)/C(C#N)=C1\SCC(=O)N1c1ccc(C(=O)NC2CCCCC2)cc1 [Compound 27, Methyl (Z)-2-cyano-2-(3-(4-(cyclohexylcarbamoyl)phenyl)-4-oxothiazolidin-2-ylidene)acetate] |

Source: article PMC6696179, “Structural Optimization and Structure–Activity Relationship of 4-Thiazolidinone Derivatives as Novel Inhibitors of Human Dihydroorotate Dehydrogenase” (Molecules, 2019)
